Laboratory results reported in US20230116972A1, “CD38 MODULATORS AND METHODS OF USE THEREOF” (Cytokinetics, Inc., priority 2021, published 2023).

Tests used:
human CD38 = target: T1, human CD38 (Homo sapiens, UniProt P28907); experiment: human recombinant CD38 enzyme assay (hydrolysis of NAD+); assay type: biochemical; conditions: human recombinant CD38, 0.4 nM enzyme, 62.5 μM NAD+; read-out: hCD38 BioChem IC50
T1 sequence (P28907 1-300): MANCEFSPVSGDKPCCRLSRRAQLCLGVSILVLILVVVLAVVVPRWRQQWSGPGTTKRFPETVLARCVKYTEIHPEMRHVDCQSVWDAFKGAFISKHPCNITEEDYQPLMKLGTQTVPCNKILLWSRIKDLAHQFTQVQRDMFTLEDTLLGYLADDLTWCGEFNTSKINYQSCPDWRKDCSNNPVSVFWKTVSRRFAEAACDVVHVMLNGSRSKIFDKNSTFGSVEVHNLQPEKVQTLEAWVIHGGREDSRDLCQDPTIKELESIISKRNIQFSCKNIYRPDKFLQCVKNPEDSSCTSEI
Summary of the method: (§1)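 Cell-free recombinant enzyme, NAD+ substrate, 60 min at RT. Stop/detect: ethanol/ADH plus semicarbazide and a CD38 inhibitor (15 min), then NaOH, then resazurin/diaphorase (15 min). Remaining NAD+ read as resorufin fluorescence, Ex/Em 540/590 nm. Inhibition fitted from dose responses.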

[1] = target: T2, endogenous CD38 in HL60 cells (Homo sapiens, UniProt P28907); experiment: cellular CD38 assay in HL60 cells (cellular NAD levels); assay type: cell-based; conditions: all-trans retinoic acid, 24 hours, read-out: hCD38 HL60 ATRA NAD Cell Diaphorase IC50
T2 construct: endogenous in cells; host or cells: HL60 (leukemic cells, treated with all-trans retinoic acid)
T2 sequence (P28907 1-300): T1 sequence (P28907 1-300)
Protocol: The compounds described herein were also assayed for their ability to inhibit the endogenous CD38 in a native cellular environment in the cellular CD38 assay, which measures the ability of the compound to modulate cellular NAD levels. […] The assays were initiated by plating 20 μL of HL60 cells in culture medium, at a density of 20000 cells per well to a 384-well Corning™ Multiwell Plates. Compounds in DMSO were added to the plates in a volume of 120 nL using the Labcyte Echo Liquid Handlers. […] The plates are then incubated for 24 hours. 50 μL of a readout-solution containing 0.2 U/mL Diaphorase enzyme, 40 uM resazurin, 10 uM FMN, 0.8 U/mL Alcohol dehydrogenase, 3% ethanol, 0.4 mg/mL bovine serum albumin, 0.2% Triton X-100 in 100 mM Tris-HCl, 30 mM EDTA, pH 8.4. The plates were read for fluorescence (Excitation/Emission=540 nm/590 nm) using an EnVision plate reader after 60 mins of incubation at ambient temperature. Note that, in Table 5, the “Compound No” corresponds to the compound numbers in Table 1.

mouse CD38 = target: T3, mouse CD38 (Mus musculus, UniProt P56528); experiment: mouse recombinant CD38 enzyme assay (hydrolysis of NAD+); assay type: biochemical; conditions: read-out: mCD38 BioChem IC50
T3 sequence (P56528 1-304): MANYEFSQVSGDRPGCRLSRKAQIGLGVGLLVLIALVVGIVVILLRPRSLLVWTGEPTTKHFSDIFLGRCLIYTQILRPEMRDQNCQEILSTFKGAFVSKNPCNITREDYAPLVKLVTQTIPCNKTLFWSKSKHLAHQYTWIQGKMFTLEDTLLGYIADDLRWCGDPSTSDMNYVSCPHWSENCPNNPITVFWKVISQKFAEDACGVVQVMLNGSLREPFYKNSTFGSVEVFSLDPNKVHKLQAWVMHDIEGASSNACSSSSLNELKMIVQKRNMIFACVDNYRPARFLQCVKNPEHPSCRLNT
Summary of the method: as §1

| IC50 (human CD38) [µM] | IC50 [1] [µM] | IC50 (mouse CD38) [µM] | Compound |
| --- | --- | --- | --- |
| 0.104 | 1.66 | 0.045 | O=C(Nc1ccc(F)cc1F)c1cccc(-n2ccnc2)n1 [Compound 24, N-(2,4-difluorophenyl)-6-(1H-imidazol-1-yl)picolinamide] |
| 0.013 | 0.468 | 0.013 | COc1ccc(NC(=O)c2cccc(-n3ccnc3)n2)cn1 [Compound 25, 6-(1H-imidazol-1-yl)-N-(6-methoxypyridin-3-yl)picolinamide] |
| 0.016 | 0.629 | 0.007 | Cc1ccc(-n2ccnc2)nc1C(=O)Nc1cccnc1 [Compound 26, 6-(1H-imidazol-1-yl)-3-methyl-N-(pyridin-3-yl)picolinamide] |
| 0.448 | 10.4 | 0.064 | Cc1ncccc1NC(=O)c1cccc(-n2ccnc2)n1 [Compound 27, 6-(1H-imidazol-1-yl)-N-(2-methylpyridin-3-yl)picolinamide] |
| 0.389 | 8.55 | 0.11 | Cc1cc(C(F)(F)F)ncc1NC(=O)c1cccc(-n2ccnc2)n1 [Compound 29, 6-(1H-imidazol-1-yl)-N-(4-methyl-6-(trifluoromethyl)pyridin-3-yl)picolinamide] |
| 0.085 | 2.83 | 0.014 | O=C(N[C@H]1CC[C@H](O)CC1)c1cccc(-n2ccnc2)n1 [Compound 30, N-(4-hydroxycyclohexyl)-6-(1H-imidazol-1-yl)picolinamide] |
| 0.479 | 15.7 | 0.205 | O=C(N[C@H]1CC[C@@H](O)CC1)c1cccc(-n2ccnc2)n1 [Compound 31, N-(4-hydroxycyclohexyl)-6-(1H-imidazol-1-yl)picolinamide] |
| 0.003 | 0.264 | 0.001 | Cc1cc(C(=O)Nc2cccnc2)nc(-n2ccnc2)c1 [Compound 32, 6-(1H-imidazol-1-yl)-4-methyl-N-(pyridin-3-yl)picolinamide] |
| 0.313 | 13.7 | 0.228 | Cc1cccc(NC(=O)c2cccc(-n3ccnc3)n2)n1 [Compound 33, 6-(1H-imidazol-1-yl)-N-(6-methylpyridin-2-yl)picolinamide] |
| 0.004 | 0.509 | 0.006 | O=C(Nc1ccc(F)c(F)c1)c1cccc(-n2ccnc2)n1 [Compound 34, N-(3,4-difluorophenyl)-6-(1H-imidazol-1-yl)picolinamide] |
| 0.21 | 3.57 | 0.068 | Cc1cc(C(=O)Nc2cccnc2)nc(-c2cncs2)c1 [Compound 35, 4-methyl-N-(pyridin-3-yl)-6-(thiazol-5-yl)picolinamide] |
| 0.005 | 0.187 | 0.014 | O=C(Nc1cccnc1)c1nccc(-n2ccnc2)n1 [Compound 36, 4-(1H-imidazol-1-yl)-N-(pyridin-3-yl)pyrimidine-2-carboxamide] |
| 0.004 | 0.339 | 0.006 | O=C(Nc1cccnc1)c1ccnc(-n2ccnc2)n1 [Compound 37, 2-(1H-imidazol-1-yl)-N-(pyridin-3-yl)pyrimidine-4-carboxamide] |
| 0.01 | 0.873 | 0.007 | O=C(Nc1ccnc(C(F)(F)F)c1)c1cccc(-n2ccnc2)n1 [Compound 38, 6-(1H-imidazol-1-yl)-N-(2-(trifluoromethyl)pyridin-4-yl)picolinamide] |
| 0.006 | 0.298 | 0.004 | O=C(Nc1ccnc(C(F)F)c1)c1cccc(-n2ccnc2)n1 [Compound 39, N-(2-(difluoromethyl)pyridin-4-yl)-6-(1H-imidazol-1-yl)picolinamide] |
| 0.006 | 0.959 | 0.002 | O=C(Nc1cccnc1)c1cc(C(F)(F)F)cc(-n2ccnc2)n1 [Compound 40, 6-(1H-imidazol-1-yl)-N-(pyridin-3-yl)-4-(trifluoromethyl)picolinamide] |

| IC50 (human CD38) [µM] | IC50 [1] [µM] | IC50 (mouse CD38) [µM] | Compound |
| --- | --- | --- | --- |
| 0.009 | 0.903 | 0.008 | O=C(Nc1ccc(C(F)(F)F)nc1)c1nc(-n2ccnc2)ccc1F [Compound 42, 3-fluoro-6-(1H-imidazol-1-yl)-N-(6-(trifluoromethyl)pyridin-3-yl)picolinamide] |
| 0.2 | 7.49 | 0.032 | COCCO[C@H]1CC[C@H](NC(=O)c2nc(-n3ccnc3)ccc2F)CC1 [Compound 43, 3-fluoro-6-(1H-imidazol-1-yl)-N-(4-(2-methoxyethoxy)cyclohexyl)picolinamide] |
| 0.098 | 5.82 | 0.066 | CC(=O)N1CCC(NC(=O)c2cccc(-n3ccnc3)n2)CC1 [Compound 44, N-(1-acetylpiperidin-4-yl)-6-(1H-imidazol-1-yl)picolinamide] |
| 0.082 | 4.69 | 0.044 | COC(=O)N1CCC(NC(=O)c2cccc(-n3ccnc3)n2)CC1 [Compound 45, methyl 4-(6-(1H-imidazol-1-yl)picolinamido)piperidine-1-carboxylate] |
| 0.417 | 9.15 | 0.1 | CC(=O)N1CC2(CC(NC(=O)c3cccc(-n4ccnc4)n3)C2)C1 [Compound 47, N-(2-acetyl-2-azaspiro[3.3]heptan-6-yl)-6-(1H-imidazol-1-yl)picolinamide] |
| 0.244 | 3.76 | 0.046 | COC(=O)N1CC2(CC(NC(=O)c3cccc(-n4ccnc4)n3)C2)C1 [Compound 48, methyl 6-(6-(1H-imidazol-1-yl)picolinamido)-2-azaspiro[3.3]heptane-2-carboxylate] |
| 0.088 | 3.37 | 0.029 | O=C(NC1CCCOC1)c1cccc(-n2ccnc2)n1 (stereo not drawn) [Compound 49, 6-(1H-imidazol-1-yl)-N-(tetrahydro-2H-pyran-3-yl)picolinamide] |
| 0.678 | 11.4 | 0.292 | Cc1cc(NC(=O)c2cccc(-c3cncs3)n2)ccn1 [Compound 52, N-(2-methylpyridin-4-yl)-6-(thiazol-5-yl)picolinamide] |
| 0.01 | 0.675 | 0.01 | O=C(Nc1ccc(C(F)(F)F)nc1)c1ccc(F)c(-n2ccnc2)n1 [Compound 53, 5-fluoro-6-(1H-imidazol-1-yl)-N-(6-(trifluoromethyl)pyridin-3-yl)picolinamide] |
| 0.189 | 8.28 | 0.038 | COCCO[C@H]1CC[C@H](NC(=O)c2ccc(F)c(-n3ccnc3)n2)CC1 [Compound 54, 5-fluoro-6-(1H-imidazol-1-yl)-N-(4-(2-methoxyethoxy)cyclohexyl)picolinamide] |
| 0.005 | 0.522 | 0.01 | O=C(Nc1ccc(C(F)(F)F)nc1)c1cncc(-n2ccnc2)n1 [Compound 55, 6-(1H-imidazol-1-yl)-N-(6-(trifluoromethyl)pyridin-3-yl)pyrazine-2-carboxamide] |
| 0.005 | 0.263 | 0.006 | O=C(Nc1cccnc1)c1cncc(-n2ccnc2)n1 [Compound 56, 6-(1H-imidazol-1-yl)-N-(pyridin-3-yl)pyrazine-2-carboxamide] |
| 0.187 | 4.55 | 0.036 | CO[C@@H]1CC[C@@H](NC(=O)c2cccc(-n3ccnc3)n2)C1 [Compound 57, 6-(1H-imidazol-1-yl)-N-(3-methoxycyclopentyl)picolinamide] |
| 0.025 | 0.769 | 0.018 | Cn1cncc1-c1cccc(C(=O)Nc2cccnc2)n1 [Compound 59, 6-(1-Methyl-1H-imidazol-5-yl)-N-(pyridin-3-yl)picolinamide] |
| 0.061 | 4.81 | 0.012 | CO[C@H]1CC[C@H](NC(=O)c2cc(C(F)(F)F)cc(-n3ccnc3)n2)CC1 [Compound 60, 6-(1H-imidazol-1-yl)-N-(4-methoxycyclohexyl)-4-(trifluoromethyl)picolinamide] |
